Measured values: article PMC10653547, “Synergistic effect of two antimicrobial peptides, BP203 and MAP-0403 J-2 with conventional antibiotics against colistin-resistant Escherichia coli and Klebsiella pneumoniae clinical isolates” (PLOS ONE, 2023)
Read-outs that look alike come from different tables or passages of the source. No end group written: not given here.

Tests used:
[1] = at 100 μM (~678 μg/mL); cited from earlier work
Source text: The stability of AMPs is crucial for storage and applications. Temperature and pH are critical parameters impacting AMP stability. In addition, the good stability of AMPs to physiological salts and serum has been considered a desirable property for clinical applications. In this study, BP203 and MAP-0403 J-2 retained antibacterial activity under elevated temperatures, various pH conditions, and in the presence of physiological salts and serum environment. […] The hemolytic activity of BP203 at 150 μM (~300 μg/mL) wa ...

[2] = system: K. pneumoniae ATCC BAA-1706
Experimental: (§1) The MICs of BP203 and MAP-0403 J-2 against clinically colistin-resistant E. coli and K. pneumoniae isolates were determined using the broth microdilution method, according to CLSI recommendations. Briefly, the peptides were subjected to serial dilution in cation-adjusted Mueller-Hinton broth (CAMHB) and added to a 96-well microtiter plate (Wuxi NEST Biotechnology, Wuxi, China). Subsequently, bacterial suspensions from freshly mid-log phase cultures were diluted to 10^6 CFU/mL with CAMHB, and introduced to each well containing the peptides.
(§2) The antibacterial activity of BP203 and MAP-0403 J-2 was evaluated concerning their response to temperature, pH, serum, and salt ions using the MIC assay, following the previously mentioned procedure. The MIC values of peptides were determined against E. coli ATCC29522 and K. pneumoniae ATCC BAA-1706. […] For the pH stability assay, both peptides were incubated in buffers with different pH values (100 mM buffers: glycine-HCl buffer (pH 2.0), sodium acetate buffer (pH 4.0), sodium phosphate buffer (pH 6.0), Tris-HCl buffer (pH 8.0), and glycine-NaOH buffer (pH 10.0)) for 1 h at 37°C. […] For serum stability assay, both peptides were exposed to 25% and 50% fetal bovine serum (FBS) for 1 h at 37°C, followed by a heat activation step for 30 min at 60°C. Afterward, the peptide solutions were serially diluted and MIC was subsequently determined. For the salt stability assay, each peptide was treated in MHB supplemented with different salts at their physiological concentrations; NaCl (100, 150, and 200 mM), MgCl2 (0.5, 1 and 2 mM), and FeCl3 […]. The serial dilutions of peptides were incubated with tested strains for MIC testing. The MICs were observed after 20–24 h of incubation at 37°C.

E. coli ATCC 25922 = system: E. coli ATCC 25922
Experimental: as §1, §2

[3] = system: E. coli ATCC 25922 and colistin-resistant E. coli clinical isolates
Experimental: as §1

[4] = system: K. pneumoniae ATCC BAA-1706 and colistin-resistant K. pneumoniae clinical isolates
Experimental: as §1

[5] = system: MRC-5 (CCL-171) normal lung fibroblast cells; assay: Cytotoxicity assay using MTT; format: cell-based, human
Experimental: MRC-5 (CCL-171) cell line, a representative of normal lung fibroblast cells, was used to investigate the cytotoxic effects of two AMPs, BP203 and MAP-0403 J-2. The cells were grown in Dulbecco’s Modified Eagle Medium (DMEM, Cytiva Life Sciences, Marlborough, MA, USA), supplemented with 10% fetal bovine serum (FBS), 1% penicillin (10,000 U/mL) and streptomycin (10,000 μg/mL) (Gibco, Waltham, MA, USA). 2×10^4 cells were seeded into each well of a 96-well plate and allowed to adhere for 24 h. Then, these cells were subjected to exposure to a medium containing a prepared two-fold serial dilution of BP203 or MAP-0403 J-2. […] 3-(4,5-Dimethylthiazol-2-yl)-2,5-Diphenyltetrazolium Bromide (MTT) was introduced into each well to achieve a concentration of 0.5 mg/mL followed by 4 h. incubation. Subsequently, formazan crystals were dissolved through the addition of 100 μL of a solubilizing solution composed of 10% SDS in 0.1 N HCl and the developed color was measured using a microtiter plate reader at an optical density (OD) of 570 nm. Cell viability was calculated as follows: (ODsample/ODcontrol) × 100.

[6] = 25% fetal bovine serum, 1 h at 37 °C
[7] = 50% fetal bovine serum, 1 h at 37 °C
[8] = pH 2, 100 mM glycine-HCl buffer, 1 h at 37 °C, neutralized
[9] = pH 4, 100 mM sodium acetate buffer, 1 h at 37 °C, neutralized
[10] = pH 6, 100 mM sodium phosphate buffer, 1 h at 37 °C, neutralized
[11] = pH 8, 100 mM Tris-HCl buffer, 1 h at 37 °C, neutralized
[12] = pH 10, 100 mM glycine-NaOH buffer, 1 h at 37 °C, neutralized
[13] = peptide incubated 1 h at 25 °C (control)

Question: What does the source list for KWLRRPWRRWR-NH2 [MAP-0403 J-2]?
Answer: Hemolytic activity [1]: 3.4%; MIC after FBS treatment ([2]; 0% FBS (control)): 16 µg/mL; MIC after FBS treatment [2, 6]: 16 µg/mL; MIC after FBS treatment [2, 7]: 16 µg/mL; MIC after pH treatment [2, 8]: 16 μg/mL; MIC after pH treatment [2, 9]: 16 μg/mL; MIC after pH treatment [2, 10]: 16 μg/mL; MIC after pH treatment ([2]; pH 7 (control)): 16 μg/mL; MIC after pH treatment [2, 11]: 16 μg/mL; MIC after pH treatment [2, 12]: 16 μg/mL; MIC after temperature treatment [2, 13]: 16 µg/mL; MIC after temperature treatment ([2]; peptide incubated 1 h at 37 °C): 16 µg/mL; MIC after temperature treatment ([2]; peptide incubated 1 h at 50 °C): 16 µg/mL; MIC after temperature treatment ([2]; peptide incubated 1 h at 70 °C): 16 µg/mL; MIC after temperature treatment ([2]; peptide incubated 1 h at 90 °C): 16 µg/mL; MIC after FBS treatment (E. coli ATCC 25922; 0% FBS (control)): 16 µg/mL; MIC after FBS treatment (E. coli ATCC 25922; [6]): 16 µg/mL; MIC after FBS treatment (E. coli ATCC 25922; [7]): 32 µg/mL; MIC after pH treatment (E. coli ATCC 25922; [8]): 16 μg/mL; MIC after pH treatment (E. coli ATCC 25922; [9]): 16 μg/mL; MIC after pH treatment (E. coli ATCC 25922; [10]): 16 μg/mL; MIC after pH treatment (E. coli ATCC 25922; pH 7 (control)): 16 μg/mL; MIC after pH treatment (E. coli ATCC 25922; [11]): 16 μg/mL; MIC after pH treatment (E. coli ATCC 25922; [12]): 16 μg/mL; MIC after temperature treatment (E. coli ATCC 25922; [13]): 16 µg/mL; MIC after temperature treatment (E. coli ATCC 25922; peptide incubated 1 h at 37 °C): 16 µg/mL; MIC after temperature treatment (E. coli ATCC 25922; peptide incubated 1 h at 50 °C): 16 µg/mL; MIC after temperature treatment (E. coli ATCC 25922; peptide incubated 1 h at 70 °C): 16 µg/mL; MIC after temperature treatment (E. coli ATCC 25922; peptide incubated 1 h at 90 °C): 16 µg/mL; MBC ([3]; E. coli ATCC 25922): 16 µg/mL; MIC ([3]; E. coli ATCC 25922): 16 µg/mL; MBC ([3]; EC-01): 32 µg/mL; MIC ([3]; EC-01): 16 µg/mL; MBC ([3]; EC-02): 32 µg/mL; MIC ([3]; EC-02): 32 µg/mL; MBC ([3]; EC-03): 16 µg/mL; MIC ([3]; EC-03): 8 µg/mL; MBC ([3]; EC-04): 8 µg/mL; MIC ([3]; EC-04): 8 µg/mL; MBC ([3]; EC-05): 64 µg/mL; MIC ([3]; EC-05): 32 µg/mL; MBC ([3]; EC-06): 32 µg/mL; MIC ([3]; EC-06): 32 µg/mL; MBC ([3]; EC-07): 32 µg/mL; MIC ([3]; EC-07): 32 µg/mL; MBC ([3]; EC-08): 64 µg/mL; MIC ([3]; EC-08): 32 µg/mL; MBC ([3]; EC-09): 32 µg/mL; MIC ([3]; EC-09): 8 µg/mL; MBC ([3]; EC-10): 64 µg/mL; MIC ([3]; EC-10): 32 µg/mL; MICs against colistin-resistant E. coli clinical isolates ([3]; range over ten isolates): 8 to 32 µg/mL; MBC ([4]; K. pneumoniae ATCC BAA-1706): 16 µg/mL; MIC ([4]; K. pneumoniae ATCC BAA-1706): 16 µg/mL; MBC ([4]; KP-01): >512 µg/mL; MIC ([4]; KP-01): >512 µg/mL; MBC ([4]; KP-02): 256 µg/mL; MIC ([4]; KP-02): 128 µg/mL; MBC ([4]; KP-03): >512 µg/mL; MIC ([4]; KP-03): >512 µg/mL; MBC ([4]; KP-04): >512 µg/mL; MIC ([4]; KP-04): >512 µg/mL; MBC ([4]; KP-05): 512 µg/mL; MIC ([4]; KP-05): 256 µg/mL; MBC ([4]; KP-06): >512 µg/mL; MIC ([4]; KP-06): >512 µg/mL; MBC ([4]; KP-07): >512 µg/mL; MIC ([4]; KP-07): >512 µg/mL; MBC ([4]; KP-08): >512 µg/mL; MIC ([4]; KP-08): >512 µg/mL; MBC ([4]; KP-09): >512 µg/mL; MIC ([4]; KP-09): >512 µg/mL; MBC ([4]; KP-10): >512 µg/mL; MIC ([4]; KP-10): >512 µg/mL; MIC against colistin-resistant K. pneumoniae clinical isolates ([4]; range over ten isolates): ≥ 512 µg/mL; Cell viability at highest concentration ([5]; 200 μg/mL, 24 h): 73.43%; IC50 ([5]; 24 h exposure): > 200 µg/mL
